Measurements as given in publication PMC12213745, “Compounds from Cyclocarya paliurus leaves inhibit binary division of methicillin-resistant Staphylococcus aureus by disrupting FtsZ dynamic” (Frontiers in Microbiology, 2025).

Legend:
[1] = tested on: MRSA-4; assay: Time-dependent killing assay; assay type: cell-based, Methicillin-resistant S. aureus; conditions: for time-kill outcome at 1 × and 2 × MIC: 1 × or 2 × MIC, initial reduction within 2 h, regrowth by 24 h; for nature of antibacterial effect (time-kill assays): MRSA-4
Procedure: An overnight culture of MRSA-4 was diluted 1:100 in fresh MHB and incubated at 37°C with shaking (200 rpm) until reaching mid-log phase (OD600 = 0.4–0.6). The culture was then adjusted to 1 × 10^6 CFU/mL and treated with AA, MA, or UA at concentrations of 1×, 2×, and 4 × MIC. 2 × MIC of vancomycin was used as a positive control, and an equivalent volume of DMSO served as the negative control. The cultures were incubated at 37°C with shaking (200 rpm) during the assay. At designated time points (0, 1, 2, 4, 8, and 24 h), samples were collected, serially diluted tenfold in sterile PBS, and 100 μL of appropriate dilutions were plated on LB agar. Plates were incubated at 37°C for 18–24 h, and viable bacteria were quantified. All experiments were performed in biological triplicates.
We next performed time-kill kinetics assays to characterize the time-dependent antibacterial effects of AA, MA, and UA against MRSA-4. Bacterial cultures were exposed to AA, MA, and UA at 1×, 2×, and 4 × their respective MICs, and viable CFU were counted at designated time points (0, 1, 2, 4, 8, and 24 h). As shown in the time-kill curves (Figure 1), treatment with 1 × or 2 × MIC of AA, MA, or UA led to an initial reduction in bacterial load within the first 2 h.

[2] = tested on: MRSA-4; assay: SIM analysis of Z-ring assembly (FtsZ immunostaining); assay type: cell-based, Methicillin-resistant S. aureus; conditions: 1 × MIC, 4 h
Procedure: MRSA-4 was cultured in MHB at 37°C to mid-logarithmic phase and subsequently treated with AA, MA, or UA at concentration of 1 × MIC, or with PBS as a control, for 4 h at 37°C. Following treatment, cells were harvested by centrifugation, washed once with PBS, and fixed with 4% (w/v) paraformaldehyde in PBS for 15 min at room temperature. Fixed cells were then washed twice with PBS. The pellets were resuspended in 90 μL GTE buffer (50 mM glucose, 25 mM Tris–HCl, pH 8.0, 10 mM EDTA) containing 10 μL lysozyme (3 mg/mL) and incubated for 3 min at room temperature. The suspension was applied onto poly-L-lysine-coated glass slides and allowed to adhere. After removing excess liquid, the slides were blocked with PBS containing 2% (w/v) BSA and 0.1% (v/v) Tween-20 for 15 min. Slides were incubated overnight at 4°C with polyclonal rabbit anti-FtsZ primary antibody, followed by three washes with PBST (PBS containing 0.1% Tween-20). Alexa Fluor 488-conjugated goat anti-rabbit IgG as the secondary antibody was then applied and incubated for 1 h at room temperature in the dark. After washing, nuclei were stained with DAPI for 3–5 min, followed by 2–3 times PBS washes to remove excess stain. Coverslips were mounted with 50% (v/v) glycerol in PBS and sealed with nail polish. Z-ring structures were visualized using structured illumination microscopy (N-SIM S, Nikon, Tokyo, Japan).
Given that septum formation is orchestrated by the FtsZ-based Z-ring, we next examined whether AA, MA, and UA affect Z-ring assembly. Structured illumination microscopy (SIM) was employed to visualize FtsZ localization in MRSA-4 cells treated with each compound at 1 × MIC for 4 h.

[3] = biological target: T1, SaFtsZ (Staphylococcus aureus, UniProt P0A031); assay: FtsZ polymerization assay (A360); assay type: biochemical; conditions: 10 μM SaFtsZ; 0.25 × and 0.5 × MIC; vs DMSO control
T1 construct: purchased Cytoskeleton, Inc. FTZ02
T1 sequence (P0A031 1-390): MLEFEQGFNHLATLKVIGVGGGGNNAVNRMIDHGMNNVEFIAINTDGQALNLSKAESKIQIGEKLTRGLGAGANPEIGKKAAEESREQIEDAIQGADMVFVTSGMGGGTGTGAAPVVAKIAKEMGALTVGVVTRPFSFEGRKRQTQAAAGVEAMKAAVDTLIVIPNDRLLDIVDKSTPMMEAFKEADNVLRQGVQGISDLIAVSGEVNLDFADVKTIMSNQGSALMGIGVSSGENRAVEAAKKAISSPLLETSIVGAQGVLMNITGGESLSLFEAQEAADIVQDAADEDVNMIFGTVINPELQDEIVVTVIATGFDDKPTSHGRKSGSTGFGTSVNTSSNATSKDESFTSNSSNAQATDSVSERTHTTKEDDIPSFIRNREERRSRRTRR
Procedure: To assess the effects of AA, MA, and UA on FtsZ polymerization, an in vitro FtsZ polymerization assay was performed. […] Polymerization was initiated by the addition of polymerization buffer components, bringing the final concentrations to 250 mM KCl and 5 mM MgCl2 Absorbance at 360 nm (A360) was monitored for 5 min to establish a stable baseline. GTP was then added to a final concentration of 1 mM. Polymerization was tracked by measuring A360 for 30 min using a microplate reader (SpectraMax i3x, Molecular Devices, CA, USA).
To determine whether the disruptions of Z-ring were due to direct effects on FtsZ polymerization, we performed in vitro polymerization assays. FtsZ polymerization was assessed by monitoring the time-dependent increase in A360 upon induction using a microplate reader. Briefly, 10 μM SaFtsZ was pre-incubated with AA, MA, UA or DMSO, and polymerization was initiated by adding K^+, Mg^2+, and GTP.

| SMILES | time-kill outcome at 1 × and 2 × MIC [1] | bacterial counts (below the detection limit) ([1]; 4 × MIC) | reduction of viable bacterial counts ([1]; 4 × MIC, within 2 h) | nature of antibacterial effect (time-kill assays) [1] | FtsZ localization / Z-ring formation (SIM) [2] | effect on FtsZ polymerization (A360) [3] | reduction of viable bacterial counts ([1]; 4 × MIC, at/over 24 h) |
| --- | --- | --- | --- | --- | --- | --- | --- |
| C[C@H]1[C@H](C)CC[C@]2(C(=O)O)CC[C@]3(C)C(=CC[C@@H]4[C@@]5(C)C[C@@H](O)[C@H](O)[C@@](C)(CO)[C@@H]5CC[C@]43C)[C@H]12 [AA, asiatic acid] | primarily bacteriostatic activity | < 2 log10 CFU/mL | > 3 log10 CFU/mL | bactericides | aberrant FtsZ localization | significantly enhanced FtsZ polymerization | – |
| CC1(C)CC[C@]2(C(=O)O)CC[C@]3(C)C(=CC[C@@H]4[C@@]5(C)C[C@@H](O)[C@H](O)C(C)(C)[C@@H]5CC[C@]43C)[C@@H]2C1 [MA, maslinic acid] | primarily bacteriostatic activity | – | – | bactericides | aberrant FtsZ localization | markedly inhibited FtsZ polymerization | > 3 log10 CFU/mL |
| C[C@H]1[C@H](C)CC[C@]2(C(=O)O)CC[C@]3(C)C(=CC[C@@H]4[C@@]5(C)CC[C@H](O)C(C)(C)[C@@H]5CC[C@]43C)[C@H]12 [UA, ursolic acid] | primarily bacteriostatic activity | – | – | bacteriostatic | aberrant FtsZ localization | markedly inhibited FtsZ polymerization | ≤ 3 log10 CFU/mL |
